Data from ChEMBL document CHEMBL3352629, “Hydroxamic acid based histone deacetylase inhibitors with confirmed activity against the malaria parasite” (Bioorg Med Chem Lett, 2015).
Activity calls are given as the source filed them. No cut-off for these calls is given here. Square brackets hold non-standard residues; d marks the D form. Peptide text beside a SMILES is read from it. * marks the point of attachment. Asu = N[C@@H](CCCCCC(=O)O)C(=O)O; pGlu = O=C1CC[C@@H](C(=O)O)N1; NHPh = c1ccc(N*)cc1; NHOH = ON*

Legend:
[1] = tested on: Leishmania donovani; test: Antiprotozoan activity against Leishmania donovani MHOM- ET-67/L82 amastigotes; format: functional, organism-based
[2] = tested on: Trypanosoma brucei rhodesiense; test: Antiprotozoan activity against Trypanosoma brucei rhodesiense STIB 900 trypomastigotes; format: functional, organism-based
[3] = tested on: NCI-H460; test: Cytotoxicity against human NCI-H460 cells; format: functional, cell-based
[4] = tested on: Leishmania donovani; test: Antiprotozoan activity against Leishmania donovani MHOM- ET-67/L82 amastigotes at 1 uM; format: functional, organism-based
[5] = tested on: L6; test: Cytotoxicity against rat L6 cells; format: ADME, cell-based
[6] = tested on: Giardia intestinalis; test: Antiprotozoan activity against Giardia lamblia G1; format: functional, organism-based; settings: Giardia duodenalis
[7] = tested on: Plasmodium falciparum; test: Antiprotozoan activity against Plasmodium falciparum NF54 IEF forms; format: functional, organism-based
[8] = tested on: Trypanosoma cruzi; test: Antiprotozoan activity against Trypanosoma cruzi Tulahuen C4 amastigotes; format: functional, organism-based
[9] = target: Histone deacetylase 3 (Homo sapiens, UniProt O15379); test: Inhibition of human HDAC3 using RHKK(Ac) as substrate by fluorimetric analysis
[10] = target: Histone deacetylase 1 (Homo sapiens, UniProt Q13547); test: Inhibition of human HDAC1 using RHKK(Ac) as substrate by fluorimetric analysis
[11] = target: T1, Protein deacetylase HDAC6 (Homo sapiens, UniProt Q9UBN7); test: Inhibition of human HDAC6 using RHKK(Ac) as substrate by fluorimetric analysis
T1 sequence (Q9UBN7 whole entry): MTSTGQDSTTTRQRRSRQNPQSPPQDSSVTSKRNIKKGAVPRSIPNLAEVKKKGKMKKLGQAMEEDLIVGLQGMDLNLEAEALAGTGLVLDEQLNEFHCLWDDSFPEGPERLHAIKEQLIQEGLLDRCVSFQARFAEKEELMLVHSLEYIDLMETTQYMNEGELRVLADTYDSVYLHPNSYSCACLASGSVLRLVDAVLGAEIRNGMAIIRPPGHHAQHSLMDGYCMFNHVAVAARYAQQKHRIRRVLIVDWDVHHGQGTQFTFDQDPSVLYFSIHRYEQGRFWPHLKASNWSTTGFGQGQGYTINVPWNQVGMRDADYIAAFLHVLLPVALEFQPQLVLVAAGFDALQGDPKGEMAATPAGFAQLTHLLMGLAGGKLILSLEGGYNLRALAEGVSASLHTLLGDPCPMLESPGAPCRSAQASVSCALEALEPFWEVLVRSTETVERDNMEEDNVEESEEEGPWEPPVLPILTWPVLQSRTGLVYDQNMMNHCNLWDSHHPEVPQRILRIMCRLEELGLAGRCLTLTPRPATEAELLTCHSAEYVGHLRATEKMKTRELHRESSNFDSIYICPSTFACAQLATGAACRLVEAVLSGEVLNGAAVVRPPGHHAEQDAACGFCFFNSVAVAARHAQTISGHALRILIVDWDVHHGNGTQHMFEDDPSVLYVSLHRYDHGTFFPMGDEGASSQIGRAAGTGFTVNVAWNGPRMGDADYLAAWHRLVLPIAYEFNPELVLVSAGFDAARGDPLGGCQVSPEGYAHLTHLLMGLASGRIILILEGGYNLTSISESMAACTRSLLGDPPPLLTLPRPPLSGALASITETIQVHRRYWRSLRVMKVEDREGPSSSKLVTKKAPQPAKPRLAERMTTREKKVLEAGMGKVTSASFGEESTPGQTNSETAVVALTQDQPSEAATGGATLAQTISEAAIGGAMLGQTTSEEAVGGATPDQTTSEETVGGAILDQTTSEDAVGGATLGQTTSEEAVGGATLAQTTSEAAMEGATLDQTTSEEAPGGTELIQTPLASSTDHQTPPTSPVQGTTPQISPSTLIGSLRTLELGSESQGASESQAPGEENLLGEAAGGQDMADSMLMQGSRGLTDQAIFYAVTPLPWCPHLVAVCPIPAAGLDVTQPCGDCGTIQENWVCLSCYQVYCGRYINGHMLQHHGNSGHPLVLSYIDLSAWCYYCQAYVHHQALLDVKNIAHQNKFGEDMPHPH

[12] = target: T2, Polyamine deacetylase HDAC10 (Homo sapiens, UniProt Q969S8); test: Inhibition of human HDAC10 using RHKK(Ac) as substrate by fluorimetric analysis
T2 sequence (Q969S8 whole entry): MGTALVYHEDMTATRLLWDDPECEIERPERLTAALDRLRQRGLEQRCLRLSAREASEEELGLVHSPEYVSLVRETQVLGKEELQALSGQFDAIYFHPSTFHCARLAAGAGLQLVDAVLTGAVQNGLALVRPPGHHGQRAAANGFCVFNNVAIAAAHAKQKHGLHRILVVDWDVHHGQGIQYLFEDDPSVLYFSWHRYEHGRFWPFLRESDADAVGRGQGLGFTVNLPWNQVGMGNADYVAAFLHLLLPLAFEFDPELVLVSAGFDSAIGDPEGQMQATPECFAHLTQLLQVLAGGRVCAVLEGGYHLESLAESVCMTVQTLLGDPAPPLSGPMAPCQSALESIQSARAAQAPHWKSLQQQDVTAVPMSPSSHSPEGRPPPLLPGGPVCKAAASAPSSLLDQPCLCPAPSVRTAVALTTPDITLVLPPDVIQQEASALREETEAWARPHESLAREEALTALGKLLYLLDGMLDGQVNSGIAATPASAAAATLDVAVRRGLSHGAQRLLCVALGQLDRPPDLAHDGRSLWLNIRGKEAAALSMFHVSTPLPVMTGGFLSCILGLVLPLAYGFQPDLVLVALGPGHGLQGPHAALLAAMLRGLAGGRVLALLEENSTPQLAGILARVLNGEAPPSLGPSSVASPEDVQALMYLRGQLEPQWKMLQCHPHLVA

[13] = target: Histone deacetylase 2 (Homo sapiens, UniProt Q92769); test: Inhibition of human HDAC2 using RHKK(Ac) as substrate by fluorimetric analysis
[14] = target: T3, Histone deacetylase 8 (Homo sapiens, UniProt Q9BY41); test: Inhibition of human HDAC8 using RHK(Ac)K(Ac) as substrate by fluorimetric analysis
T3 sequence (Q9BY41 whole entry): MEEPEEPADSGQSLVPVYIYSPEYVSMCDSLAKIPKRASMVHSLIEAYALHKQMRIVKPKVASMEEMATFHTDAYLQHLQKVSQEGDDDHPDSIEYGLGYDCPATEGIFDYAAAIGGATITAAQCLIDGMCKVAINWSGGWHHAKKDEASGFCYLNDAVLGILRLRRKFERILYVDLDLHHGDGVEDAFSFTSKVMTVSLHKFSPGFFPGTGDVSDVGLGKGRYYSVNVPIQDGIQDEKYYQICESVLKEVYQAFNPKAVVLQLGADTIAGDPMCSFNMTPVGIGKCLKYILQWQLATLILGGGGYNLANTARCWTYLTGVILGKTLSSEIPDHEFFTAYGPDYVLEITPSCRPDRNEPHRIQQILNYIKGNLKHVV

[15] = target: T4, Histone deacetylase 11 (Homo sapiens, UniProt Q96DB2); test: Inhibition of human HDAC11 using RHKK(Ac) as substrate by fluorimetric analysis
T4 sequence (Q96DB2 whole entry): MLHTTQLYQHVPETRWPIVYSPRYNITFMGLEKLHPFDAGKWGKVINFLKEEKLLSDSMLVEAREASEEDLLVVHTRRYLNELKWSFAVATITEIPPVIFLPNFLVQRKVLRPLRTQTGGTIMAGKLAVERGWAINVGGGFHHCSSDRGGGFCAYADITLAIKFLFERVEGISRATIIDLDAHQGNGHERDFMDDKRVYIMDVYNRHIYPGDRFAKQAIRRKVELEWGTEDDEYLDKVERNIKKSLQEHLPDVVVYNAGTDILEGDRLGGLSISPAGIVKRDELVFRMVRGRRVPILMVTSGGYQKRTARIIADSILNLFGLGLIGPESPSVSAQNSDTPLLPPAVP

[16] = tested on: Plasmodium falciparum; test: Antiprotozoan activity against Plasmodium falciparum infected in mouse assessed as reduction in parasite growth at 50 mg/kg, ip QD for 4 days; format: functional; settings: 96 h, route intraperitoneal
[17] = tested on: Plasmodium falciparum; test: Antiprotozoan activity against Plasmodium falciparum infected in mouse assessed as mouse survival at 50 mg/kg, ip QD for 4 days; format: functional; settings: route intraperitoneal
[18] = Leishmania donovani, MHOM- ET-67/L82, read-out: IC50

Histone deacetylase 3, sequence (O15379 whole entry): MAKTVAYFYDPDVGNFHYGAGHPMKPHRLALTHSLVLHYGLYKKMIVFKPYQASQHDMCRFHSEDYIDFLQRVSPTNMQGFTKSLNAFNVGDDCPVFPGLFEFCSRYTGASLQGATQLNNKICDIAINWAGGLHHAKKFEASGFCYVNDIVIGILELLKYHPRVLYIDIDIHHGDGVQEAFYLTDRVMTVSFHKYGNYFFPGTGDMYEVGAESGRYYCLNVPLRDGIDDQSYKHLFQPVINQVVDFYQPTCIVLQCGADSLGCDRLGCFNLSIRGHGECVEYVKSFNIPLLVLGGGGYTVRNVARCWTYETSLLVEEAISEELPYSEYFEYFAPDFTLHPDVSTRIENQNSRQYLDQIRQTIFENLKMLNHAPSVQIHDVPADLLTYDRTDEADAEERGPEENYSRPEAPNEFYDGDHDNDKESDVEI
Histone deacetylase 1, sequence (Q13547 whole entry): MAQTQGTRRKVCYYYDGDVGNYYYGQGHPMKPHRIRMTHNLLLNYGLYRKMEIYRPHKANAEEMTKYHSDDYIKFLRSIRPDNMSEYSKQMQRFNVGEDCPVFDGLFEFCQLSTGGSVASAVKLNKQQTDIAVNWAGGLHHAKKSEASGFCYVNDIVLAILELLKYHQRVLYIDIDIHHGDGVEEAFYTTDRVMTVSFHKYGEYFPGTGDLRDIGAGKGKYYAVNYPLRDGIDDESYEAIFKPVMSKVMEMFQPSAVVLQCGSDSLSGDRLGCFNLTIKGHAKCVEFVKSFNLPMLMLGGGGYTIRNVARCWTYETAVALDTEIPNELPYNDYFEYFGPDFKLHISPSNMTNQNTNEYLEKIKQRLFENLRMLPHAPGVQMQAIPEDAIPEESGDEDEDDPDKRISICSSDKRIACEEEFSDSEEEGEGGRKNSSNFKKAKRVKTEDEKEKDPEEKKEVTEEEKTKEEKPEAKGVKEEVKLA
Histone deacetylase 2, sequence (Q92769 whole entry): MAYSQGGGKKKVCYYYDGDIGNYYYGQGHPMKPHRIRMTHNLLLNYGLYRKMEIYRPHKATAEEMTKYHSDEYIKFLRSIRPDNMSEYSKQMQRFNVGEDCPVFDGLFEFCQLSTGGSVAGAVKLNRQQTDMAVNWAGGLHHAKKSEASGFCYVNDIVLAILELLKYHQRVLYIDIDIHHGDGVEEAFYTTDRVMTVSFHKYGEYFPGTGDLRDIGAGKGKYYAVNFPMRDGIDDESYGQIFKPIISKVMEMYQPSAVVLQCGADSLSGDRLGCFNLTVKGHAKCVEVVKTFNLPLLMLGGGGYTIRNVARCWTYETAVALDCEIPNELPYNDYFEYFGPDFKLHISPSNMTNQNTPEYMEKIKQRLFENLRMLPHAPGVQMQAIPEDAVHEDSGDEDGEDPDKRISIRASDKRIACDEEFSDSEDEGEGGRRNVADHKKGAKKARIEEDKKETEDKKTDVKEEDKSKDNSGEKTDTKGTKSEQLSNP

Compound | IC50 [2] [µM] | IC50 [5] [nM] | IC50 [6] [µM] | IC50 [7] [nM] | IC50 [8] [µM] | inhibition in vivo at 50 mg/kg [16] [%] | other results
CC(=O)SCCCCC[C@H](NC(=O)[C@H]1CCC(=O)N1)C(=O)Nc1ccccc1 | 2.51 | 189 | 8.11 | 6570 | 2.1 | – | IC50 [1]: Not Active; IC50 [3]: 66 nM; Activity [4]: inactive
O=C1CC[C@H](C(=O)N[C@@H](CCCCCS)C(=O)Nc2ccccc2)N1 | 3.23 | 5250 | 12.3 | 9660 | 25.8 | – | IC50 [1, 18]: > 10 µM; IC50 [9]: 5 nM; IC50 [10]: 13 nM; IC50 [11]: 3 nM; IC50 [12]: 11 nM; IC50 [13]: 78 nM; IC50 [14]: 281 nM; IC50 [15]: 14 nM
Cc1cccc(NC(=O)[C@H](CCCCCC(=O)NO)NC(=O)[C@H]2CCC(=O)N2)c1 | 5.51 | 1230 | 4.64 | 6 | 0.849 | 33.8 | IC50 [15]: 15 nM
O=C1CC[C@H](C(=O)N[C@@H](CCCCCS)C(=O)Nc2cccc(C(F)(F)F)c2)N1 | 4.75 | 2670 | 64.8 | 3260 | 19.1 | – | IC50 [1, 18]: > 3 µM
O=C(Cn1ccnc1[N+](=O)[O-])NCc1ccccc1 [BENZNIDAZOLE] | – | – | – | – | 2.13 | – | –
C[C@@H]1CC[C@H]2[C@@H](C)C(=O)O[C@@H]3O[C@@]4(C)CC[C@@H]1[C@]32OO4 [ARTEMISININ] | – | – | – | – | – | 99.9 | Survival [17]: >30 days
Cc1ncc([N+](=O)[O-])n1CCO [METRONIDAZOLE] | – | – | 0.58 | – | – | – | –
CCCCCCCCCCCCCCCCOP(=O)([O-])OCC[N+](C)(C)C [MILTEFOSINE] | – | – | – | – | – | – | IC50 [1, 18]: 3.15 µM
O=C(CCCCC[C@H](NC(=O)[C@@H]1CCC(=O)N1)C(=O)Nc1ccccc1)NO ([pGlu]-[Asu](NHOH)-NHPh) | 19.9 | 75100 | 10.7 | 19 | 48.4 | 87.5 | IC50 [9]: 62 nM; IC50 [10]: 34 nM; IC50 [11]: 3 nM; IC50 [3]: 2200 nM; IC50 [12]: 113 nM; IC50 [13]: 89 nM; IC50 [14]: 93 nM; IC50 [15]: 13 nM
O=C(CCCCCCC(=O)Nc1ccccc1)NO [VORINOSTAT] | – | – | – | 25 | 10.1 | – | Activity [4]: inactive
O=C(CCCCC[C@H](NC(=O)[C@H]1CCC(=O)N1)C(=O)Nc1cccc(C(F)(F)F)c1)NO | 4.16 | 638 | 4.27 | 3 | 0.972 | 63.2 | –
C[C@H]1[C@@H](O)O[C@@H]2O[C@@]3(C)CC[C@H]4[C@H](C)CC[C@@H]1[C@@]24OO3 [ARTENIMOL] | – | – | – | – | – | 99.8 | –
O=C(CCCCC[C@H](NC(=O)[C@@H]1CC(=O)N1)C(=O)Nc1ccccc1)NO | 6.04 | 7460 | 12.8 | 23 | 33 | – | IC50 [9]: 88 nM; IC50 [10]: 59 nM; IC50 [11]: 6 nM; IC50 [3]: 5400 nM; IC50 [12]: 125 nM; IC50 [13]: 143 nM; IC50 [14]: 137 nM; IC50 [15]: 37 nM
COc1cc([C@@H]2c3cc4c(cc3[C@H](O)[C@H]3COC(=O)[C@H]23)OCO4)cc(OC)c1OC [PODOFILOX] | – | 19 | – | – | – | – | –
CC(=O)SCCCCC[C@H](NC(=O)[C@H]1CCC(=O)N1)C(=O)Nc1cccc(C(F)(F)F)c1 | 2.38 | 91 | 40.9 | 3240 | 3.98 | – | IC50 [1]: Not Active; Activity [4]: inactive
